Assay [1] relates to CD8+ T cells from HLA-A2+ normal donors or HLA-A2+ melanoma patients. As to the kind of experiment: In vitro sensitization of human CD8+ T cells with TASA peptide-pulsed autologous DC, IFN-γ ELISA against peptide-pulsed T2 cells. Format: cell-based. The procedure:
The indicated peptides were pulsed onto autologous DC and used to prime and boost CD8^+ T cells isolated from the peripheral blood of eight normal HLA-A2^+ donors or ten HLA-A2^+ patients with melanoma. Seven days after the primary in vitro sensitization (IVS) (melanoma patients) or a secondary IVS boost (normal donors), T cells were analyzed for their reactivity against HLA-A2^+ T2 cells pulsed with the relevant peptide vs. the negative control HIV-nef190-198 peptide. After 24 hours of co-culture, cell-free supernatants were analyzed for levels of secreted IFN-γ using a commercial ELISA. Data are reported in Bar and Whisker plots, with p-values provided for paired pre- versus post-IVS data from normal donors and patients. In addition, p<0.05 was detected for MEL-Post versus ND-Post for the following peptides: DLK1 (309), NG2 (770), NG2 (2238), PDGFRβ (891) and RGS5 (5).
In vitro assessment of human CD8^+ T cell responses against TASA- or TAA-derived peptides. Peripheral blood mononuclear cells (PBMC) were obtained by venipuncture or leukapheresis from HLA-A2^+ normal donors or HLA-A2^+ melanoma patients with written consent under IRB-approved protocols (Table 3). CD8^+ T cells were then isolated by MACS (Miltenyi Biotec, Auburn, Calif.) and either not stimulated or stimulated with autologous, TASA peptide-pulsed DC as previously described (Tatsumi et al., Cancer Res., 63:4481-4489, 2003). Normal donor T cells were stimulated with TASA peptide-pulsed DC twice on a weekly schedule, with responder T cells harvested for analysis of their specificity 5 days after the booster stimulation (i.e. day 12 of T cell-DC co-culture). Melanoma patient CD8^+ T cells were analyzed after a single round of stimulation with TASA peptide-pulsed, autologous DC (i.e. day 5 of T cell-DC co-culture) as indicated. For DC-based stimulations, DC were pulsed with an equimolar (1 μM each) pool of the TASA peptides (Table 4) for 4 h at 37° C. at 5% CO2 tension. These antigen-loaded DC were then used to stimulate autologous CD8^+ T cells at a T cell-to-DC ratio of 10:1 to generate a bulk population of responder T cells. T cells were maintained in IMDM media supplemented with 10% human AB serum, 100 U/ml penicillin, […], 10 mM L-glutamine and MEM non-essential amino acids (all reagents from Invitrogen, except human AB serum that was purchased from Sigma-Aldrich, St. Louis, Mo.). Responder CD8^+ T cells were analyzed for reactivity against control (HLA-A2^+) T2 cells or T2 cells pulsed with individual TASA or TAA peptides (1 μM for 4 h at 37° C.) at a CD8^+ T cell-to-T2 cell ratio of 5:1 for 24 h. Harvested cell-free supernatants were consequently assessed for hIFN-γ content using a specific ELISA (BD Biosciences, San Diego, Calif.) with a lower detection limit of 4.7 pg/ml.
CD8^+ T cells from HLA-A2^+ normal donors or HLA-A2^+ melanoma patients recognize TASA-derived peptides in vitro. To assess whether the TASA-derived peptides identified in the HHD tumor model were also capable of being recognized by human CD8^+ T cells, IVS was performed using T cells isolated from the peripheral blood of HLA-A2^+ donors or HLA-A2^+ patients with melanoma. DC were pulsed with peptides derived from a given TASA for 4 h at 37° C., then washed and used as stimulator cells for autologous CD8^+ T cells. In cases where more than one peptide existed for a given protein, DC were pulsed with an equimolar (10 μM) mixture of each peptide. Two rounds of IVS using TASA for normal donors and a single-round of IVS using TASA for melanoma patients was applied. HLA-A2^+ normal donors (FIG. 4; Tables 4, 5A and 5B) and melanoma patients (FIG. 4; Tables 4, 5A and 5B) were each capable of recognizing many of the TASA-derived peptides.
In general terms: An ELISA detects its analyte on a solid surface through an enzyme-linked reagent.

Another assay concerns MC38 colon carcinoma. The assay can be described thus: MC38 protection (prophylactic vaccination) model. Format: in vivo, HHD mice. More on the design: key to Anti-tumor efficacy in MC38 protection model: +/-, p < 0.05 versus DC only for 2 consecutive time points; - not significant at any time point analyzed. The following applies: for Protection against HLA-A2neg MC38 tumor challenge: immunization days -14 and -7, tumor challenge day 0 (FIG. 9B); for Anti-tumor efficacy in MC38 protection model: DC.IL12 pulsed with a pool of 1 or more peptides derived from the indicated TBVA, vaccination d-14, d-7. The source says: FIGS. 9A-9B show a series of graphs illustrating induction of specific/protective CD8^+ T cells reactive against TASA as a consequence of DC/peptide-based vaccination. In FIG. 9A, HHD mice (five animals/cohort) were vaccinated twice (d-14, d-7) subcutaneously with PBS or with isologous DC.IL12 pulsed with PBS or synthetic peptides (Table 6) derived from the indicated TASA. In cases where more than 1 peptide was identified for a given target antigen, an equimolar pool of the indicated peptides (each 10 μM) was pulsed onto DC.IL12 and used for vaccination in the relevant cohort. One week after the second immunization, spleens were harvested and splenic CD8^+ T cells isolated using MACS-beads (Miltenyi). T cells were stimulated in vitro for 48 h using the HLA-A2^+ T2 cell line pulsed with relevant TASA vs. irrelevant HIV-nef190-198 ([…]; ref. 24) peptides. Cell-free supernatants were then recovered and IFN-γ levels by ELISA. Data are reported as mean+/−SD for triplicate ELISA determinations, and are representative of 3 independent experiments performed. *p<0.05 vs. HIV-nef control peptide responses. In FIG. 9B, HHD mice were vaccinated twice (days −14 and −7; right flank) subcutaneously with PBS or with isologous DC.IL12 pulsed with PBS or synthetic TASA peptides as indicated in FIG. 1A. In cases where more than 1 peptide is identified for a given target antigen, an equimolar pool of the indicated peptides (each 10 μM) was pulsed onto DC.IL12 and used for vaccination in the relevant cohort. One week after the booster vaccine (i.e. day zero), animals were challenged subcutaneously on their left flank with 2×10^6 MC38 colon carcinoma cells. Tumor growth was then monitored every 3-4 days through day 24. All data represent mean tumor area (in mm^2)+/−SD determined from 5 mice/cohort, and are representative of three independent experiments performed. *p<0.05 versus DC only on the indicated days.
Vaccine Experiments. For prophylactic experiments, HHD mice were immunized subcutaneously on the right flank with 100 μl PBS or PBS containing 10^6 syngenic DC.IL12 cells that had been untreated or pre-pulsed for 4 h at 37° C. with 10 μM synthetic peptide(s). Immunizations occurred on days −14 and −7, with mice subsequently receiving injections of MC38 (2×10^6) tumor cells in the left flank on d0. In all cases, treatment groups contained 5 mice per cohort. For analysis of tumor cellular composition in repeat experiments, MC38 tumors were isolated by surgical resection 10 days after tumor inoculation and prepared for fluorescence imaging, as described below. […] Mice were then untreated or treated with control, syngenic DC.IL12 or DC.IL12 (10^6 cells injected subcutaneously in the left flank on days 7 and 14) pulsed with synthetic TBVA peptides. In some assays, as indicated, in vivo antibody depletions (on days 6, 13 and 20 post-tumor inoculation to assess early involvement or on days 60 and 67 or 180 and 187 to assess late involvement) of protective CD4^+ T cells or CD8^+ T cells were performed and monitored as previously described (Zhao et al., Mol Ther., 19:805-814, 2011). In all cases, tumor size (area) was monitored every 3-4 days and is reported as mean+/−SD in mm^2.
The DLK1, EphA2, HBB, NG2, NRP1, NRP2, PDGFRβ, PSMA, RGS5, TEM1, VEGFR1 and VEGFR2 antigens were expressed in situ by blood vessel cells in the MC38 colon carcinoma TME (FIG. 14). Protection of HHD mice against a challenge with HLA-A2^neg MC38 tumor cells injected subcutaneously on day zero was assayed with immunization with TBVA-derived peptides on days −14 and −7. […]

With “PDGFRβ: PDGFRβ-derived peptide 890-898 pulsed onto DC or DC.IL12 (ILLWEIFTL; listed as Homo sapiens)”, the “Specific CD8+ T cell Production of IFN-γ in Response to TASA” value (from here on “Specific CD8+ T cell Production of IFN-γ”) in assay [1] (donor Mel8, melanoma patient) was “+ (Human responses were designated as + if T cell reactivity against T2 cells presenting the indicated peptide (IFN-γ ELISA) was >30 pg/ml and more than 2 fold higher than reactivity versus T2 cells pulsed with the negative control HIV-nef190-198 peptide)”; in assay [1] (donor ND2, normal donor), “+ (Human responses were designated as + if T cell reactivity against T2 cells presenting the indicated peptide (IFN-γ ELISA) was >30 pg/ml and more than 2 fold higher than reactivity versus T2 cells pulsed with the negative control HIV-nef190-198 peptide)”; in assay [1] (donor ND4, normal donor), “+ (Human responses were designated as + if T cell reactivity against T2 cells presenting the indicated peptide (IFN-γ ELISA) was >30 pg/ml and more than 2 fold higher than reactivity versus T2 cells pulsed with the negative control HIV-nef190-198 peptide)”. For the same substance, the “Protection against HLA-A2neg MC38 tumor challenge” value with MC38 colon carcinoma is given as “effective in preventing HLA-A2^neg MC38 tumor establishment or they resulted in the regression of tumors”.
“VEGFR1: VEGFR1-derived peptide 770-778 pulsed onto DC or DC.IL12 (TLFWLLLTL; listed as Homo sapiens)”: the “Specific CD8+ T cell Production of IFN-γ” value in assay [1] (donor Mel4, melanoma patient) was “+ (Human responses were designated as + if T cell reactivity against T2 cells presenting the indicated peptide (IFN-γ ELISA) was >30 pg/ml and more than 2 fold higher than reactivity versus T2 cells pulsed with the negative control HIV-nef190-198 peptide)”; in assay [1] (donor Mel6, melanoma patient), “+ (Human responses were designated as + if T cell reactivity against T2 cells presenting the indicated peptide (IFN-γ ELISA) was >30 pg/ml and more than 2 fold higher than reactivity versus T2 cells pulsed with the negative control HIV-nef190-198 peptide)”; in assay [1] (donor Mel7, melanoma patient) it was “+ (Human responses were designated as + if T cell reactivity against T2 cells presenting the indicated peptide (IFN-γ ELISA) was >30 pg/ml and more than 2 fold higher than reactivity versus T2 cells pulsed with the negative control HIV-nef190-198 peptide)”; in assay [1] (donor ND5, normal donor), “+ (Human responses were designated as + if T cell reactivity against T2 cells presenting the indicated peptide (IFN-γ ELISA) was >30 pg/ml and more than 2 fold higher than reactivity versus T2 cells pulsed with the negative control HIV-nef190-198 peptide)”. The “Anti-tumor efficacy in MC38 protection model” value in the assay on MC38 colon carcinoma is given as “+/- (+/-, p < 0.05 versus DC only for 2 consecutive time points)”. Besides, in the assay with MC38 colon carcinoma, the “Protection against HLA-A2neg MC38 tumor challenge” value was “minimal protection”.
“PSMA: PSMA-derived peptide 441-450 pulsed onto DC or DC.IL12 (LLQERGVAYI; listed as Homo sapiens)”: in assay [1] (donor Mel4, melanoma patient), the “Specific CD8+ T cell Production of IFN-γ” value was “+ (Human responses were designated as + if T cell reactivity against T2 cells presenting the indicated peptide (IFN-γ ELISA) was >30 pg/ml and more than 2 fold higher than reactivity versus T2 cells pulsed with the negative control HIV-nef190-198 peptide)”. Also, in assay [1] (donor Mel6, melanoma patient), the “Specific CD8+ T cell Production of IFN-γ” value is “+ (Human responses were designated as + if T cell reactivity against T2 cells presenting the indicated peptide (IFN-γ ELISA) was >30 pg/ml and more than 2 fold higher than reactivity versus T2 cells pulsed with the negative control HIV-nef190-198 peptide)”. Besides, in the assay on MC38 colon carcinoma, the “Anti-tumor efficacy in MC38 protection model” value is “-” and the “Protection against HLA-A2neg MC38 tumor challenge” value is reported as “minimal protection”.

For the origin of these results see US9937250B2, “Immunogenic tumor associated stromal cell antigen peptides and methods of their use” (University of Pittsburgh—Of the Commonwealth System of …, priority 2011, dated 2018).
